{"source": "paper PMC3557921", "about": "(Journal of Medicinal Chemistry, 2012)", "target": "T1, β-catenin (armadillo-repeat region of human β-catenin) (Homo sapiens, UniProt P35222)", "T1 sequence (P35222 134-671 limits assumed)": "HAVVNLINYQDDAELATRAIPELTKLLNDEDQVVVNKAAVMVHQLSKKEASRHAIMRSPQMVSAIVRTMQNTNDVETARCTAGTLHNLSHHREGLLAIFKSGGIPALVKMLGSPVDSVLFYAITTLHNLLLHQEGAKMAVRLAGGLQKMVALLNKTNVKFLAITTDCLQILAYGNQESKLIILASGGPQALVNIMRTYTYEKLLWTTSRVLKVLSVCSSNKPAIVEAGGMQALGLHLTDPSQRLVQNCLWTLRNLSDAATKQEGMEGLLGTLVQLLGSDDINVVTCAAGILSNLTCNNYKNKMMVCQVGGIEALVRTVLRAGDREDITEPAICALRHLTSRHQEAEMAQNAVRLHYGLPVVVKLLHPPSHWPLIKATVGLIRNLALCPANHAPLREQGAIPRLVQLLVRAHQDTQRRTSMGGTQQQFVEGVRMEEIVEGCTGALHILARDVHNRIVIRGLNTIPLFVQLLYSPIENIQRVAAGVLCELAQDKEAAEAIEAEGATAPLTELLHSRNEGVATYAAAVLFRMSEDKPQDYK", "test": "1D 1H STD-NMR", "type": "binding", "details": "30 μM protein, 1 mM ligand; 100 mM Tris, 150 mM NaCl, 2 mM DTT, pH 7.4, 25 °C"}
{"smiles": "O=C1OC2(c3ccccc31)c1cc(Br)c(O)c(Br)c1Oc1c2cc(Br)c(O)c1Br", "note": "[eosin Y]", "values": [{"measurement": "1D 1H STD-NMR", "result": "predicted ligands fluorescein and eosin Y bind to the protein"}]}
